Results on 8 compounds are retold here after patent US11034650B2, “Compounds useful for treating a Mannheimia haemolytica or Histophilus somni infection” (Intervet Inc., priority 2016, dated 2021).

Holding throughout (assay type): cell-based
Assay [1] relates to Pasteurella multocida PM 6391 (ATCC 43137, reference strain). The assay is described as follows: MIC, broth-microdilution (CLSI VET01-A4), strain PM 6391. The following applies: Pasteurella multocida strain PM 6391, broth-microdilution; unit assumed. The protocol:
For example, representative compounds were tested against ***, Mannheimia haemolytica and Pasteurella multocida, using the conventional broth-dilution assay.
The Minimum inhibitory concentrations (MIC) of compounds according to the invention for a number of veterinary bacterial pathogens were determined by the broth-microdilution method according to CLSI document VET01-A4.
Microdilution trays containing a doubling dilution series of the test compound were used for the tests. The MIC results were interpreted according to the CLSI documents VET01-S3. The lowest concentration of compound at which no visible growth (i.e. no turbidity) detected by the unaided eye was recorded as the MIC.
(In general: In broth dilution the organism is exposed to a series of concentrations in liquid medium.)

The test system of assay [2] is Mannheimia haemolytica MH 13065 (XB0446-6003.9, BRD field isolate). The assay is described as follows: MIC, broth-microdilution (CLSI VET01-A4), strain MH 13065. The following applies: Mannheimia haemolytica strain MH 13065, broth-microdilution; unit assumed. In short, it runs like this: (§1)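 Broth microdilution per CLSI VET01-A4, using trays with a doubling dilution series of compound; results interpreted per CLSI VET01-S3. MIC taken as lowest concentration with no turbidity visible to the unaided eye.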

Assay [3] concerns Pasteurella multocida PM 10775 (080130003051, BRD field isolate). Description: MIC, broth-microdilution (CLSI VET01-A4), strain PM 10775. The following applies: Pasteurella multocida strain PM 10775, broth-microdilution; unit assumed. The procedure, abridged: as §1
Assay [4] concerns Pasteurella multocida PM 12080 (IV102277-0093, BRD field isolate). The assay is described as follows: MIC, broth-microdilution (CLSI VET01-A4), strain PM 12080. The following applies: Pasteurella multocida strain PM 12080, broth-microdilution; unit assumed. In short, it runs like this: as §1
For assay [5], the system named is Mannheimia haemolytica MH 12587 (1071, BRD field isolate, macrolide-resistance: erm+, E+). The assay is described as follows: MIC, broth-microdilution (CLSI VET01-A4), strain MH 12587. The following applies: Mannheimia haemolytica strain MH 12587, broth-microdilution; unit assumed. The procedure, abridged: as §1
Assay [6] has as its system Pasteurella multocida PM 6267 (P 2225 (L386), reference strain, mouse infection strain). The assay is described as follows: MIC, broth-microdilution (CLSI VET01-A4), strain PM 6267. The following applies: Pasteurella multocida strain PM 6267, broth-microdilution; unit assumed. The procedure, abridged:
as §1

The subject of assay [7] is Mannheimia haemolytica MH 6374 (ATCC 33396, reference strain). Description: MIC, broth-microdilution (CLSI VET01-A4), strain MH 6374. The following applies: Mannheimia haemolytica strain MH 6374, broth-microdilution; unit assumed. The procedure, abridged:
as §1

The test system of assay [8] is Mannheimia haemolytica MH 10720 (154, BRD field isolate). The assay is described as follows: MIC, broth-microdilution (CLSI VET01-A4), strain MH 10720. The following applies: Mannheimia haemolytica strain MH 10720, broth-microdilution; unit assumed. The procedure, abridged: as §1
Assay [9] relates to Mannheimia haemolytica MH 13093 (XB0472-6014.1, BRD field isolate). The assay is described as follows: MIC, broth-microdilution (CLSI VET01-A4), strain MH 13093. The following applies: Mannheimia haemolytica strain MH 13093, broth-microdilution; unit assumed. The procedure, abridged: as §1
The subject of assay [10] is Mannheimia haemolytica MH 6357 (M7/2, reference strain, cattle infection strain). Description: MIC, broth-microdilution (CLSI VET01-A4), strain MH 6357. The following applies: Mannheimia haemolytica strain MH 6357, broth-microdilution; unit assumed. In short, it runs like this:
as §1

Values after ≈ are worked out from the molar mass of the structure shown. Some results are limits rather than exact numbers.

Compound `CC[C@H](C)[C@H](NC(=O)c1ccc(C#Cc2ccc(CNC(C)C)cc2)cc1)C(=O)NO` [Compound 141] yielded an MIC PM 6391 in [1] of 3.1 µg/mL (≈ 7.35 µM). In [2], this compound yielded an MIC MH 13065 of 6.3 µg/mL (≈ 14.9 µM). The compound also returned an MIC PM 10775 in [3] of 0.2 µg/mL (≈ 0.474 µM). This compound also displayed an MIC PM 12080 in assay [4] of 3.1 µg/mL (≈ 7.35 µM). For the same compound, the MIC MH 12587 in [5] stood at 12.5 µg/mL (≈ 29.7 µM). Further, in [6], the MIC PM 6267 amounted to 1.6 µg/mL (≈ 3.8 µM). This compound registered an MIC MH 6374 in [7] of 12.5 µg/mL (≈ 29.7 µM). In addition, the MIC MH 10720 in assay [8] was determined as 1.6 µg/mL (≈ 3.8 µM). The MIC MH 13093 in assay [9] is 12.5 µg/mL (≈ 29.7 µM). The same compound displayed an MIC MH 6357 in [10] of 6.3 µg/mL (≈ 14.9 µM).

For the compound `CC[C@H](C)[C@H](NC(=O)c1ccc(C#Cc2ccc(CN3CCS(=O)(=O)CC3)cc2)cc1)C(=O)NO` [Compound 142], the MIC PM 6391 in assay [1] worked out at 0.4 µg/mL (≈ 0.804 µM). Besides, in assay [2], the MIC MH 13065 stood at 12.5 µg/mL (≈ 25.1 µM). Further, the MIC PM 10775 in [3] is at most 0.1 µg/mL. For the same compound, the MIC PM 12080 in assay [4] was 0.4 µg/mL (≈ 0.804 µM). In assay [5], this compound displayed an MIC MH 12587 of 25 µg/mL (≈ 50.2 µM). The same compound showed an MIC PM 6267 in [6] of 0.2 µg/mL (≈ 0.402 µM). The compound also displayed an MIC MH 6374 in assay [7] of 12.5 µg/mL (≈ 25.1 µM). The compound also showed an MIC MH 10720 in [8] of 3.1 µg/mL (≈ 6.23 µM). For the same compound, in assay [9], the MIC MH 13093 came out at 12.5 µg/mL (≈ 25.1 µM). The MIC MH 6357 in [10] came to 6.3 µg/mL (≈ 12.7 µM).

On to `CC[C@H](C)[C@H](NC(=O)c1ccc(C#Cc2cccc(CNC3CC3)c2)cc1)C(=O)NO` [Compound 144], for which, in assay [1], the MIC PM 6391 turned out to be 12.5 µg/mL (≈ 29.8 µM). This compound gave an MIC MH 13065 in [2] of 12.5 µg/mL (≈ 29.8 µM). This compound registered an MIC PM 10775 in assay [3] of 0.4 µg/mL (≈ 0.953 µM). The compound also displayed an MIC PM 12080 in [4] of 3.1 µg/mL (≈ 7.39 µM). In assay [5], the MIC MH 12587 came out at 25 µg/mL (≈ 59.6 µM). In assay [6], this compound showed an MIC PM 6267 of 3.1 µg/mL (≈ 7.39 µM). For the same compound, the MIC MH 6374 in [7] was 12.5 µg/mL (≈ 29.8 µM). Further, in assay [8], the MIC MH 10720 amounted to 1.6 µg/mL (≈ 3.81 µM). Further, in assay [9], the MIC MH 13093 amounted to 12.5 µg/mL (≈ 29.8 µM). The compound also displayed an MIC MH 6357 in [10] of 6.3 µg/mL (≈ 15 µM).

In assay [1], `O=C(N[C@@H](CO)C(=O)NO)c1ccc(C#Cc2ccc(CN3CCCC3)cc2)cc1` [Compound 145] gave an MIC PM 6391 of 6.3 µg/mL (≈ 15.5 µM). Besides, the MIC MH 13065 in assay [2] came out at 12.5 µg/mL (≈ 30.7 µM). This compound also yielded an MIC PM 10775 in [3] of 0.2 µg/mL (≈ 0.491 µM). The compound further displayed an MIC PM 12080 in assay [4] of 6.3 µg/mL (≈ 15.5 µM). The compound also yielded an MIC MH 12587 in assay [5] of 25 µg/mL (≈ 61.4 µM). The MIC PM 6267 in assay [6] came out at 3.1 µg/mL (≈ 7.61 µM). In assay [7], this compound had an MIC MH 6374 of 25 µg/mL (≈ 61.4 µM). Further, the MIC MH 10720 in assay [8] was determined as 3.1 µg/mL (≈ 7.61 µM). Besides, in [9], the MIC MH 13093 amounted to 12.5 µg/mL (≈ 30.7 µM). The same compound gave an MIC MH 6357 in assay [10] of 6.3 µg/mL (≈ 15.5 µM).

Compound `CN1CCN(Cc2ccc(C#Cc3ccc(C(=O)N[C@@H](CO)C(=O)NO)cc3)cc2)CC1` [Compound 146] displayed an MIC PM 6391 in assay [1] of 1.6 µg/mL (≈ 3.67 µM). The MIC MH 13065 in assay [2] stood at 12.5 µg/mL (≈ 28.6 µM). Also, the MIC PM 10775 in assay [3] was at most 0.1 µg/mL. In [4], the MIC PM 12080 is at most 0.1 µg/mL. Further, in assay [5], the MIC MH 12587 came out at 25 µg/mL (≈ 57.3 µM). The compound further yielded an MIC PM 6267 in assay [6] of 0.8 µg/mL (≈ 1.83 µM). The MIC MH 6374 in assay [7] came out at 25 µg/mL (≈ 57.3 µM). Besides, in assay [8], the MIC MH 10720 stood at 1.6 µg/mL (≈ 3.67 µM). The same compound registered an MIC MH 13093 in [9] of 25 µg/mL (≈ 57.3 µM). This compound had an MIC MH 6357 in [10] of 6.3 µg/mL (≈ 14.4 µM).

On to `O=C(N[C@@H](CO)C(=O)NO)c1ccc(C#Cc2ccc(CNC3CCC3)cc2)cc1` [Compound 147], for which the MIC PM 6391 in assay [1] was found to be 1.6 µg/mL (≈ 3.93 µM). This compound displayed an MIC MH 13065 in [2] of 6.3 µg/mL (≈ 15.5 µM). The compound also gave an MIC PM 10775 in assay [3] of at most 0.1 µg/mL. For the same compound, the MIC PM 12080 in assay [4] turned out to be 1.6 µg/mL (≈ 3.93 µM). Moreover, in [5], the MIC MH 12587 stood at 6.3 µg/mL (≈ 15.5 µM). In assay [6], this compound had an MIC PM 6267 of 0.4 µg/mL (≈ 0.982 µM). The MIC MH 6374 in assay [7] came out at 6.3 µg/mL (≈ 15.5 µM). This compound displayed an MIC MH 10720 in [8] of 3.1 µg/mL (≈ 7.61 µM). Also, in [9], the MIC MH 13093 turned out to be 6.3 µg/mL (≈ 15.5 µM). Further, the MIC MH 6357 in assay [10] was 3.1 µg/mL (≈ 7.61 µM).

Turning to `O=C(N[C@@H](CO)C(=O)NO)c1ccc(C#Cc2ccc(CNC3CCCC3)cc2)cc1` [Compound 148], the MIC PM 6391 in assay [1] came to 1.6 µg/mL (≈ 3.8 µM). The compound further yielded an MIC MH 13065 in [2] of 12.5 µg/mL (≈ 29.7 µM). The same compound came in with an MIC PM 10775 in assay [3] of at most 0.1 µg/mL. This compound also yielded an MIC PM 12080 in assay [4] of 1.6 µg/mL (≈ 3.8 µM). Besides, in assay [5], the MIC MH 12587 is 25 µg/mL (≈ 59.3 µM). For the same compound, the MIC PM 6267 in assay [6] stood at 0.8 µg/mL (≈ 1.9 µM). For the same compound, the MIC MH 6374 in [7] was found to be 25 µg/mL (≈ 59.3 µM). In [8], this compound gave an MIC MH 10720 of 1.6 µg/mL (≈ 3.8 µM). This compound also showed an MIC MH 13093 in [9] of 12.5 µg/mL (≈ 29.7 µM). Further, the MIC MH 6357 in assay [10] turned out to be 6.3 µg/mL (≈ 14.9 µM).

In turn, `O=C(N[C@@H](CO)C(=O)NO)c1ccc(C#Cc2ccc(CNC3CCCCC3)cc2)cc1` [Compound 149] gave an MIC PM 6391 in [1] of 1.6 µg/mL (≈ 3.67 µM). The compound further registered an MIC MH 13065 in assay [2] of 25 µg/mL (≈ 57.4 µM). Besides, in [3], the MIC PM 10775 was at most 0.1 µg/mL. Besides, the MIC PM 12080 in assay [4] worked out at 1.6 µg/mL (≈ 3.67 µM). The MIC MH 12587 in assay [5] came to 25 µg/mL (≈ 57.4 µM). Further, the MIC PM 6267 in [6] was determined as 0.8 µg/mL (≈ 1.84 µM). In [7], this compound registered an MIC MH 6374 of 25 µg/mL (≈ 57.4 µM). This compound also showed an MIC MH 10720 in [8] of 3.1 µg/mL (≈ 7.12 µM). In assay [9], the MIC MH 13093 worked out at 25 µg/mL (≈ 57.4 µM). This compound yielded an MIC MH 6357 in [10] of 12.5 µg/mL (≈ 28.7 µM).
